This data set can be described thus: gradient 5% acetonitrile 3 min, to 50% in 2 min, to 85% in 15 min, held 3 min, 100 µL/min. The conditions noted are these: column: Zorbax Extend-C18 2.1 x 50 mm; eluents: water / acetonitrile, 0.1% formic acid. The method in brief: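 Each retention time is based on an adduct peak selected computationally and verified by manual inspection. Measurements used HPLC–quadrupole time-of-flight mass spectrometry in positive and negative ionization mode on mixtures of ~100 pure standards. Chromatography ran on a Zorbax Extend-C18 column (2.1 × 50 mm, 1.8 μm) at 100 μL/min with water and acetonitrile, each containing 0.1% formic acid, and dead and dwell volumes of 40 μL and 900 μL.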
`Cc1cccc(-c2ocnc2C(=O)NC2CCN(C)CC2)c1` had an RP-LC retention time of 618 s. In turn, `Cc1ccc(C(C)NC(=O)c2cn3c(n2)CCCC3)c(C)c1` (centres undefined) had an RP-LC retention time of 642 s. With `Cn1cccc1C(=O)N1CCN(c2cc(-c3ccccc3)[nH]n2)CC1`, the RP-LC retention time turned out to be 747 s.

For the compound `CCN1CCCn2cc(S(=O)(=O)Nc3ccc(F)cc3Cl)cc2C1=O`, the RP-LC retention time is 738 s. `C=CCNC(=O)c1cnn(-c2cc(-c3nc(C(C)C)no3)ccn2)c1C`: the RP-LC retention time is 776 s. `CNC(=O)C1CCCN(c2nc3ncn(CC(=O)Nc4cccc(C(F)(F)F)c4)c(=O)c3s2)C1` (centres undefined) gave an RP-LC retention time of 704 s. `Cc1ccc2c(C(=O)NCCc3cccs3)cc(NC(=O)C(C)C)cc2n1`: the RP-LC retention time was determined as 643 s. `O=C(Cn1ccn2nc(-c3ccccc3)c(CO)c2c1=O)NCc1ccc2c(c1)OCO2` showed an RP-LC retention time of 738 s.

`Cc1nnc(-c2c(S(=O)(=O)NC3CCCCCC3)c(C)n(C)c2C)o1` yielded an RP-LC retention time of 900 s. Take `CCCN1C(=O)c2cc(S(=O)(=O)NCc3ccccc3)ccc2Oc2cccnc21`: the RP-LC retention time turned out to be 1050 s. The result for `COCCN1C(=O)[C@H]2CN(Cc3ccc(OC(F)(F)F)cc3)C[C@H]2C1=O` reads 694 s; that for `COc1cc(CN(CC2CCCO2)C(=O)c2oc3ccccc3c2C)cc(OC)c1OC` (centres undefined), 1030 s; that for `CCn1ccc(C(=O)N2CCN(c3ccc(=O)n(-c4ccc(Cl)cc4)n3)CC2)n1`, 753 s. `CC(=O)N1CCc2cc(N3CC(C(=O)Nc4ccc(C)cc4Cl)CC3=O)ccc21` (centres undefined) had an RP-LC retention time of 735 s. To `O=C1C(c2ccncc2)N(CCCc2ccccc2)C(=O)CN1c1ccccc1` (centres undefined) belongs 719 s; to `O=C1CC(c2nc(-c3ccc4c(c3)OCO4)no2)CN1c1ccc2c(c1)OCO2` (centres undefined), 862 s. Consider `O=C(NCCC1=CCCCC1)C1CCN(S(=O)(=O)c2ccc(-c3noc(C4CC4)n3)cc2)CC1`, for which the RP-LC retention time stood at 1090 s. Turning to `CC1CCN(C2=NCCN2C(=O)c2c(F)cccc2F)CC1`, the RP-LC retention time was found to be 660 s.

As to `Cc1ccc(C(=O)NCc2nc(-c3ccc(-c4csc(C5CC5)n4)cc3)no2)cc1`, the RP-LC retention time stood at 1110 s. `COc1ccc(C2(CNC(=O)C(=O)Nc3ccccc3Cl)CCCC2)cc1` gave an RP-LC retention time of 1300 s.

As for `Cc1ccsc1CN1CCN(c2cnn3cnnc3c2)CC1`, the RP-LC retention time was 547 s. `Cc1noc(-c2cc(=O)n(CC(=O)Nc3cc(Cl)ccc3C)c3ccccc23)n1` registered an RP-LC retention time of 942 s. In turn, `CC1CCCCN1CCNC(=O)CCCn1c(=O)c2cccn2c2ccc(Br)cc21` (centres undefined) gave an RP-LC retention time of 673 s. Take `CCc1ccc(NC(=O)Nc2cccc(-c3nnc4n3CCCC4)c2)cc1`: the RP-LC retention time worked out at 736 s. `CCOC(=O)c1nc(N2CCCC(C)C2)c2ccccc2n1` (centres undefined) came in with an RP-LC retention time of 759 s.

Compound `CCc1nc(OCC(=O)NCc2ccccc2)c2ccccc2n1` came in with an RP-LC retention time of 756 s.

As to `COCc1noc(C2CCCCN2C(=O)Cc2c(C)noc2C)n1` (centres undefined), the RP-LC retention time is 673 s.

`Cc1nc2ncnn2c(N2CCCC2)c1C` had an RP-LC retention time of 648 s. The result for `Cn1c(=O)c(N2CCN(S(=O)(=O)c3ccc(Cl)cc3)CC2)nc2ccncc21` reads 674 s.

With `Cc1cccc(N2CC(C(=O)NC3CC3)CC2=O)c1` (centres undefined), the RP-LC retention time is 671 s. In turn, `CC(C)(C)NC(=O)c1cc2c(s1)N(CC1CC1)CCCC2` showed an RP-LC retention time of 1200 s. The result for `CCCS(=O)(=O)N1CCC(c2noc(-c3cccnc3)n2)C1` (centres undefined) reads 730 s; that for `O=C(Nc1ccnn1Cc1ccco1)C(c1ccccc1)c1ccccc1`, 926 s; that for `Cc1c(NC(=O)c2ccc([N+](=O)[O-])cc2Cl)c(=O)n(-c2ccccc2)n1C`, 652 s.

`O=C(CSc1cnc2ccccc2n1)N1CCN(c2ccc(F)cc2)CC1` registered an RP-LC retention time of 851 s. For the compound `Cc1c(N2CCC(C(=O)N3CCN(c4ccccn4)CC3)CC2)c(=O)n(C)c(=O)n1-c1ccccc1`, the RP-LC retention time came out at 618 s. In turn, `Cc1nccn1Cc1noc(-c2ccccc2Cl)n1` displayed an RP-LC retention time of 615 s. The result for `O=C(NCc1ccccc1Cl)c1nnc(-c2ccc(S(=O)(=O)N3CCCC3)cc2)o1` reads 934 s. `COc1ccc(-c2nc(N3CCCCC3)ncc2C(=O)O)cc1` registered an RP-LC retention time of 923 s.

As to `COC(=O)CNC(=O)Nc1ncc(-c2ccc(OC)cc2)n1C`, the RP-LC retention time came out at 607 s. `O=C(NCc1ccc2c(c1)OCO2)C1CCN(CCc2c[nH]c3ncccc23)CC1`: the RP-LC retention time was found to be 577 s. `CCCCn1cc(S(=O)(=O)NCc2ccccc2C(F)(F)F)c2cccnc21` came in with an RP-LC retention time of 1040 s. Regarding `Cc1cc(C)cc(-c2nnc(Cc3nc(-c4ccncc4)no3)o2)c1`, the RP-LC retention time was found to be 886 s.

In turn, `COc1cccc(S(=O)(=O)N2C[C@@H](F)C[C@H]2C(=O)N2CCOCC2)c1` came in with an RP-LC retention time of 676 s. The result for `CCc1nc(OCC(=O)NCc2cccc(C)c2)c2c(C)c(C)oc2n1` reads 947 s; that for `CC(C)c1ccc(-c2ccnc3c(C(=O)NCc4ccco4)cnn23)cc1`, 1090 s. `Cc1oc(C(C)C)nc1C(=O)NCc1ccc(C(F)(F)F)cc1` had an RP-LC retention time of 1060 s. In turn, `CCOC(=O)c1noc2ncnc(Nc3ccccc3C)c12` registered an RP-LC retention time of 1010 s. The compound `Cc1cc(N2CCN(C)CC2)nc2ccc(NC(=S)N3CCN(c4ccc(Cl)cc4)CC3)cc12` came in with an RP-LC retention time of 645 s. To `Cc1ccc(-n2cc3c(c(C(=O)Nc4ccc5c(c4)OCCO5)c2=O)CC(C)(C)CC3=O)cc1` belongs 1070 s; to `N#Cc1cnc2ccc(F)cc2c1N1CCC(C(=O)Nc2ccc3c(c2)OCCO3)CC1`, 804 s. To `COc1ccccc1CNc1c(-c2cc(OC)c(OC)c(OC)c2)nc2ncccn12` belongs 714 s; to `CCCCn1c(CNC(=O)c2cccs2)nnc1SCC(=O)OCC`, 713 s. To `CO[C@@H]1COCC[C@@H]1N[C@@H]1CC[C@@](C(=O)N2CCc3ncc(C(F)(F)F)cc3C2)(C(C)C)C1` belongs 709 s. The compound `COc1ccccc1-c1noc(-c2nnn(Cc3nc(-c4cccc(C)c4)oc3C)c2C)n1` displayed an RP-LC retention time of 1160 s. `COc1cccc(-n2nnc(C(=O)O)c2C(C)C)c1`: the RP-LC retention time is 734 s. In turn, `Cc1cccc(C)c1NC(=O)C1CCN(S(=O)(=O)c2ccc3c(c2)NC(=O)CO3)CC1` gave an RP-LC retention time of 813 s. To `CC1Cc2ccccc2N1C(=O)CC1CCN(S(=O)(=O)c2ccc3c(c2)oc(=O)n3C)CC1` (centres undefined) belongs 965 s; to `O=C(Nc1cccc(Br)c1)C1CCCN(c2ncc(-c3ccccc3)cn2)C1` (centres undefined), 1250 s.

Source of the values: the METLIN SMRT retention time set (Domingo-Almenara et al. 2019).
